# PubChem BioAssay AID1745844 (Carcinogenic Potency Database (CPDB), 2022)
# Calls of active or inactive are those of the source. How the calls were made is not given here.
# System: rodent lifetime carcinogenesis bioassay, tumor incidence TD50
# Assay: carcinogenic potency in animals, long-term in vivo studies, CPDB compilation (AID 1745844)
smiles,measurement,setting,value
CC(=O)CN(CC(C)=O)N=O,TD50,"rat, strain Fischer 344, females, by gavage, site: liver, lesion: hepatocellular carcinoma, dosed 30 weeks, study length 95 weeks",0.684 mg/kg/day
same,TD50,"rat, strain Fischer 344, females, in drinking water, site: liver, lesion: hemangiosarcoma, dosed 50 weeks, study length 75 weeks",0.892 mg/kg/day
same,TD50,"rat, strain Fischer 344, females, in drinking water, site: liver, lesion: hepatocellular carcinoma, dosed 50 weeks, study length 75 weeks",0.582 mg/kg/day
same,TD50,"rat, strain Fischer 344, females, in drinking water, site: liver, lesion: several types, types named in the paper, dosed 50 weeks, study length 75 weeks",0.232 mg/kg/day
same,TD50,"rat, strain Fischer 344, females, in drinking water, site: lung, lesion: several types, types named in the paper, dosed 50 weeks, study length 75 weeks",0.399 mg/kg/day
same,TD50,"rat, strain MRC-Wistar, males, by gavage, site: colorectum, lesion: one or several types, types not named, dosed 104 weeks, study length 104 weeks",1.56 mg/kg/day
same,TD50,"rat, strain MRC-Wistar, males, by gavage, site: liver, lesion: one or several types, types not named, dosed 104 weeks, study length 104 weeks",1.56 mg/kg/day
same,TD50,"rat, strain MRC-Wistar, males, by gavage, site: lung, lesion: one or several types, types not named, dosed 104 weeks, study length 104 weeks",1.92 mg/kg/day
same,TD50,"rat, strain MRC-Wistar, males, by gavage, site: nasal cavity, lesion: one or several types, types not named, dosed 104 weeks, study length 104 weeks",1.56 mg/kg/day
same,TD50,"rat, strain MRC-Wistar, males, by gavage, site: prostate, lesion: carcinoma, dosed 74 weeks, study length 74 weeks",1.53 mg/kg/day
same,TD50,"rat, strain MRC-Wistar, males, by gavage, site: prostate, lesion: squamous-cell carcinoma, keratinized, dosed 104 weeks, study length 104 weeks",2.41 mg/kg/day
same,TD50,"rat, strain MRC-Wistar, males, by gavage, site: thyroid gland, lesion: one or several types, types not named, dosed 104 weeks, study length 104 weeks",3.16 mg/kg/day
same,TD50,"rat, strain MRC-Wistar, males, by gavage, site: urethra, lesion: several types, types named in the paper, dosed 104 weeks, study length 104 weeks",0.891 mg/kg/day
same,TD50,"rat, strain MRC, females, by gavage, site: any site (literature study), lesion: one or several types, types not named, dosed 73 weeks, study length 77 weeks",0.171 mg/kg/day
same,TD50,"rat, strain MRC, females, by gavage, site: liver, lesion: several types, types named in the paper, dosed 73 weeks, study length 77 weeks",0.283 mg/kg/day
same,TD50,"rat, strain MRC, females, by gavage, site: lung, lesion: adenoma, dosed 73 weeks, study length 77 weeks",14 mg/kg/day
same,TD50,"rat, strain MRC, females, by gavage, site: nasal and paranasal cavity, lesion: several types, types named in the paper, dosed 73 weeks, study length 77 weeks",14 mg/kg/day
same,TD50,"rat, strain MRC, females, by gavage, site: thyroid gland, lesion: several types, types named in the paper, dosed 73 weeks, study length 77 weeks",1.39 mg/kg/day
same,TD50,"rat, strain MRC, males, by gavage, site: any site (literature study), lesion: one or several types, types not named, dosed 72 weeks, study length 80 weeks",0.0995 mg/kg/day
same,TD50,"rat, strain MRC, males, by gavage, site: colon, lesion: several types, types named in the paper, dosed 72 weeks, study length 80 weeks",1.6 mg/kg/day
same,TD50,"rat, strain MRC, males, by gavage, site: liver, lesion: several types, types named in the paper, dosed 72 weeks, study length 80 weeks",0.989 mg/kg/day
same,TD50,"rat, strain MRC, males, by gavage, site: lung, lesion: several types, types named in the paper, dosed 72 weeks, study length 80 weeks",1.1 mg/kg/day
same,TD50,"rat, strain MRC, males, by gavage, site: nasal and paranasal cavity, lesion: several types, types named in the paper, dosed 72 weeks, study length 80 weeks",1.23 mg/kg/day
same,TD50,"rat, strain MRC, males, by gavage, site: prostate, lesion: squamous-cell carcinoma, dosed 72 weeks, study length 80 weeks",2.21 mg/kg/day
same,TD50,"rat, strain MRC, males, by gavage, site: thyroid gland, lesion: several types, types named in the paper, dosed 72 weeks, study length 80 weeks",0.968 mg/kg/day
same,TD50,"rat, strain MRC, males, by gavage, site: urethra, lesion: papilloma, dosed 72 weeks, study length 80 weeks",0.878 mg/kg/day
CCN(N)C=O,TD50,"mouse, strain Swiss albino, females, in drinking water, site: blood vessels, lesion: several types, types named in the paper, dosed 61 weeks, study length 61 weeks",2.49 mg/kg/day
same,TD50,"mouse, strain Swiss albino, females, in drinking water, site: lung, lesion: several types, types named in the paper, dosed 61 weeks, study length 61 weeks",2.52 mg/kg/day
same,TD50,"mouse, strain Swiss albino, males, in drinking water, site: blood vessels, lesion: several types, types named in the paper, dosed 60 weeks, study length 60 weeks",3.55 mg/kg/day
same,TD50,"mouse, strain Swiss albino, males, in drinking water, site: gall bladder, lesion: several types, types named in the paper, dosed 60 weeks, study length 60 weeks",47.4 mg/kg/day
same,TD50,"mouse, strain Swiss albino, males, in drinking water, site: liver, lesion: several types, types named in the paper, dosed 60 weeks, study length 60 weeks",17.7 mg/kg/day
same,TD50,"mouse, strain Swiss albino, males, in drinking water, site: lung, lesion: several types, types named in the paper, dosed 60 weeks, study length 60 weeks",3.19 mg/kg/day
same,TD50,"mouse, strain Swiss albino, males, in drinking water, site: preputial gland, lesion: several types, types named in the paper, dosed 60 weeks, study length 60 weeks",50.8 mg/kg/day
C=CC(O)c1ccc2c(c1)OCO2 (stereo not given),TD50,"mouse, strain (B6C3F1 x B6C3 background, brachymorphic) inter se = B6C3F2 br, females, in feed, site: liver, lesion: hepatoma, dosed 52 weeks, study length 69 weeks",1530 mg/kg/day
same,TD50,"mouse, strain (B6C3F1 x B6C3 background, brachymorphic) inter se = B6C3F2 ph, females, in feed, site: liver, lesion: hepatoma, dosed 52 weeks, study length 69 weeks",53.3 mg/kg/day
same,TD50,"mouse, strain Charles River CD1, females, in feed, site: liver, lesion: hepatocellular carcinoma, dosed 51 weeks, study length 73 weeks",68 mg/kg/day
same,TD50,"mouse, strain Charles River CD1, females, in feed, site: liver, lesion: hepatoma, dosed 52 weeks, study length 69 weeks",49.1 mg/kg/day
same,TD50,"mouse, strain Charles River CD1, females, in feed, site: lung, lesion: adenoma, dosed 52 weeks, study length 69 weeks",3670 mg/kg/day
same,TD50,"mouse, strain Charles River CD1, females, in feed, site: subcutaneous tissue, lesion: angiosarcoma, dosed 51 weeks, study length 73 weeks",1550 mg/kg/day
same,TD50,"mouse, strain Charles River CD1, males, in feed, site: interscapulum, lesion: angiosarcoma, dosed 56 weeks, study length 69 weeks",429 mg/kg/day
same,TD50,"mouse, strain Charles River CD1, males, in feed, site: liver, lesion: carcinoma, dosed 56 weeks, study length 69 weeks",18900 mg/kg/day
same,TD50,"mouse, strain Charles River CD1, males, in feed, site: lung, lesion: adenoma, dosed 56 weeks, study length 69 weeks",5470 mg/kg/day
same,TD50,"rat, strain Charles River CD (Sprague-Dawley), males, in feed, site: forestomach, lesion: papilloma, dosed 36 weeks, study length 52 weeks",65.8 mg/kg/day
same,TD50,"rat, strain Charles River CD (Sprague-Dawley), males, in feed, site: forestomach, lesion: papilloma, dosed 43 weeks, study length 69 weeks",59.8 mg/kg/day
same,TD50,"rat, strain Charles River CD (Sprague-Dawley), males, in feed, site: liver, lesion: carcinoma, dosed 36 weeks, study length 52 weeks",12.1 mg/kg/day
same,TD50,"rat, strain Charles River CD (Sprague-Dawley), males, in feed, site: liver, lesion: carcinoma, dosed 43 weeks, study length 69 weeks",16.7 mg/kg/day
same,TD50,"rat, strain Charles River CD (Sprague-Dawley), males, in feed, site: liver, lesion: hepatocellular carcinoma, dosed 58 weeks, study length 95 weeks",47.8 mg/kg/day
CC(O)CN(CC(C)O)CC(C)O (stereo not given),carcinogen call,"rat, strain Wistar, males, in feed, site: liver, lesion: one or several types, types not named, dosed 102 weeks, study length 102 weeks",negative (inactive)
CCCCOC(=O)c1ccc(O)cc1,TD50,"mouse, strain ICR/Jcl, females, in feed, site: any site (literature study), lesion: several types, types named in the paper, dosed 102 weeks, study length 106 weeks",2720 mg/kg/day (inactive)
same,carcinogen call,"mouse, strain ICR/Jcl, females, in feed, site: liver, lesion: one or several types, types not named, dosed 102 weeks, study length 106 weeks",negative (inactive)
same,TD50,"mouse, strain ICR/Jcl, females, in feed, site: lung, lesion: one or several types, types not named, dosed 102 weeks, study length 106 weeks",5100 mg/kg/day (inactive)
same,TD50,"mouse, strain ICR/Jcl, males, in feed, site: any site (literature study), lesion: several types, types named in the paper, dosed 102 weeks, study length 106 weeks",5240 mg/kg/day (inactive)
same,TD50,"mouse, strain ICR/Jcl, males, in feed, site: liver, lesion: one or several types, types not named, dosed 102 weeks, study length 106 weeks",27400 mg/kg/day (inactive)
same,TD50,"mouse, strain ICR/Jcl, males, in feed, site: lung, lesion: one or several types, types not named, dosed 102 weeks, study length 106 weeks",119000 mg/kg/day (inactive)
O=NN1CCCCCCC1,TD50,"rat, strain Fischer 344, males, in drinking water, site: esophagus, lesion: basal-cell carcinoma, dosed 50 weeks, study length 125 weeks",0.159 mg/kg/day
same,TD50,"rat, strain Fischer 344, males, in drinking water, site: esophagus, lesion: several types, types named in the paper, dosed 25 weeks, study length 115 weeks",0.118 mg/kg/day
same,TD50,"rat, strain Fischer 344, males, in drinking water, site: esophagus, lesion: several types, types named in the paper, dosed 100 weeks, study length 115 weeks",0.0735 mg/kg/day
same,carcinogen call,"rat, strain Fischer 344, males, in drinking water, site: liver, lesion: hepatocellular carcinoma, dosed 50 weeks, study length 125 weeks",positive
same,TD50,"rat, strain Fischer 344, males, in drinking water, site: liver, lesion: several types, types named in the paper, dosed 100 weeks, study length 115 weeks",0.198 mg/kg/day
same,TD50,"rat, strain Fischer 344, males, in drinking water, site: tongue, lesion: basal-cell carcinoma, dosed 50 weeks, study length 125 weeks",0.171 mg/kg/day
same,TD50,"rat, strain Fischer 344, males, in drinking water, site: tongue, lesion: basal-cell carcinoma, dosed 100 weeks, study length 115 weeks",0.105 mg/kg/day
same,TD50,"rat, strain Fischer 344, males, in drinking water, site: upper gastrointestinal tract, lesion: carcinoma, dosed 25 weeks, study length 115 weeks",0.0363 mg/kg/day
same,TD50,"rat, strain Fischer 344, males, in drinking water, site: upper gastrointestinal tract, lesion: several types, types named in the paper, dosed 25 weeks, study length 115 weeks",0.0512 mg/kg/day
same,TD50,"rat, strain Fischer 344, males, in drinking water, site: upper gastrointestinal tract, lesion: several types, types named in the paper, dosed 50 weeks, study length 125 weeks",0.0571 mg/kg/day
same,TD50,"rat, strain Fischer 344, males, in drinking water, site: upper gastrointestinal tract, lesion: several types, types named in the paper, dosed 100 weeks, study length 115 weeks",0.0292 mg/kg/day
O=NN1CCN(N=O)CC1,TD50,"mouse, strain C17, females, by gavage, site: forestomach, lesion: squamous-cell carcinoma, dosed 40 weeks, study length 104 weeks",4.66 mg/kg/day
same,TD50,"mouse, strain C17, females, by gavage, site: uterus, lesion: reticulum-cell neoplasm, type A, dosed 40 weeks, study length 104 weeks",4.13 mg/kg/day
same,TD50,"mouse, strain C17, males, by gavage, site: forestomach, lesion: squamous-cell carcinoma, dosed 40 weeks, study length 104 weeks",2.01 mg/kg/day
same,carcinogen call,"mouse, strain Swiss, females, in drinking water, site: any site (literature study), lesion: several types, types named in the paper, dosed 52 weeks, study length 100 weeks",positive
same,TD50,"mouse, strain Swiss, males, in drinking water, site: any site (literature study), lesion: several types, types named in the paper, dosed 52 weeks, study length 100 weeks",8.24 mg/kg/day
same,TD50,"mouse, strain Swiss, males, in drinking water, site: liver, lesion: hepatocellular carcinoma, dosed 52 weeks, study length 100 weeks",51.9 mg/kg/day
same,TD50,"mouse, strain Swiss, males, in drinking water, site: lung, lesion: adenoma, dosed 52 weeks, study length 100 weeks",8.7 mg/kg/day
COC(=O)[C@H]1[C@H]2C[C@@H]3c4[nH]c5ccccc5c4CCN3C[C@H]2C[C@@H](OC(=O)c2cc(OC)c(OC)c(OC)c2)[C@@H]1OC,TD50,"rat, strain Wistar, both sexes, in feed, site: several sites, sites named in the paper, lesion: several types, types named in the paper, dosed 78 weeks, study length 78 weeks",1.28 mg/kg/day (inactive)
NC(=O)c1ccccc1C(N)=O,carcinogen call,"mouse, strain B6C3F1, females, in feed, site: any site (literature study), lesion: several types, types named in the paper, dosed 103 weeks, study length 103 weeks",negative (inactive)
same,TD50,"mouse, strain B6C3F1, males, in feed, site: any site (literature study), lesion: several types, types named in the paper, dosed 105 weeks, study length 105 weeks",1.1e+06 mg/kg/day (inactive)
same,TD50,"mouse, strain B6C3F1, males, in feed, site: lung, lesion: alveolar/bronchiolar adenoma + alveolar/bronchiolar carcinoma, dosed 105 weeks, study length 105 weeks",35800 mg/kg/day
same,TD50,"rat, strain Fischer 344, females, in feed, site: any site (literature study), lesion: several types, types named in the paper, dosed 106 weeks, study length 106 weeks",722 mg/kg/day (inactive)
same,TD50,"rat, strain Fischer 344, females, in feed, site: liver, lesion: hepatocellular adenoma + hepatocellular carcinoma + neoplastic nodule, dosed 106 weeks, study length 106 weeks",5390 mg/kg/day
same,carcinogen call,"rat, strain Fischer 344, males, in feed, site: any site (literature study), lesion: several types, types named in the paper, dosed 106 weeks, study length 106 weeks",negative (inactive)
same,TD50,"rat, strain Fischer 344, males, in feed, site: liver, lesion: hepatocellular adenoma + hepatocellular carcinoma + neoplastic nodule, dosed 106 weeks, study length 106 weeks",16600 mg/kg/day
